± gives the standard deviation of the averaged measurements.
Key:
MK-1775 = compound: C=CCn1c(=O)c2cnc(Nc3ccc(N4CCN(C)CC4)cc3)nc2n1-c1cccc(C(C)(C)O)n1 [MK-1775]; assay: area under dose-response curve of surviving fraction (unscaled, Aref=0) (surviving fraction x log10(nM)); higher = more resistant; conditions: exposure time: 5 days; dose range 0.5-1000 nM
Outline: (§1)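 Tumour cell lines in 384-well plates were exposed for five days to eight inhibitor concentrations from 0.5 to 1000 nM. Viability was read by CellTiter-Glo luminescence, normalised to DMSO-only wells, in three screens per line. Dose-response survival curves were fitted to surviving fractions by 3-parameter logistic regression in the drc R package. Area under the curve is the unscaled activity area (Aref = 0) over log10 dose.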

BLEOMYCIN = compound: Cc1c(N)nc([C@H](CC(N)=O)NC[C@H](N)C(N)=O)nc1C(=O)N[C@H](C(=O)N[C@H](C)[C@@H](O)[C@H](C)C(=O)N[C@H](C(=O)NCCc1nc(-c2nc(C(=O)NCCC[S+](C)C)cs2)cs1)[C@@H](C)O)[C@@H](OC1OC(CO)C(O)C(O)C1OC1OC(CO)C(O)C(OC(N)=O)C1O)c1cnc[nH]1 [BLEOMYCIN]; assay: as above; conditions: exposure time: 5 days; dose range 0.5-1000 nM
Outline: as §1

CABOZANTINIB = compound: COc1cc2nccc(Oc3ccc(NC(=O)C4(C(=O)Nc5ccc(F)cc5)CC4)cc3)c2cc1OC [CABOZANTINIB]; assay: as above; conditions: exposure time: 5 days; dose range 0.5-1000 nM
Outline: as §1

IMATINIB = compound: Cc1ccc(NC(=O)c2ccc(CN3CCN(C)CC3)cc2)cc1Nc1nccc(-c2cccnc2)n1 [IMATINIB]; assay: surviving fraction relative to DMSO-only wells; higher = less growth inhibition; conditions: exposure time: 5 days
Outline: (§2)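 Inhibitors were tested at 0.5, 1, 5, 10, 50, 100, 500 and 1000 nM, applied continuously for five days beginning 24 hours after log-phase tumour cells were seeded at 250–500 per well in 384-well plates. CellTiter-Glo luminescence served as the viability measure, expressed as surviving fraction against the median of DMSO-only wells. Each line, screened three times, was kept only with replicate Pearson r >0.7 and median Z' >0.3.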

AFIMOXIFENE [1] = compound: T1, CC/C(=C(\c1ccc(O)cc1)c1ccc(OCCN(C)C)cc1)c1ccccc1 [AFIMOXIFENE]; assay: as above; conditions: exposure time: 5 days
Outline: as §2

AFIMOXIFENE [2] = compound: T1, AFIMOXIFENE; assay: area under dose-response curve of surviving fraction (unscaled, Aref=0) (surviving fraction x log10(nM)); higher = more resistant; conditions: exposure time: 5 days; dose range 0.5-1000 nM
Outline: as §1

| Test System | area under dose-response curve (MK-1775) | area under dose-response curve (BLEOMYCIN) | area under dose-response curve (CABOZANTINIB) | surviving fraction (IMATINIB; 0.5 nM) | surviving fraction (IMATINIB; 1 nM) | surviving fraction (IMATINIB; 5 nM) | surviving fraction (IMATINIB; 10 nM) | surviving fraction (IMATINIB; 100 nM) | surviving fraction (IMATINIB; 500 nM) | surviving fraction (IMATINIB; 1000 nM) | surviving fraction (AFIMOXIFENE [1]; 0.5 nM) | surviving fraction (AFIMOXIFENE [1]; 1 nM) | surviving fraction (AFIMOXIFENE [1]; 5 nM) | surviving fraction (AFIMOXIFENE [1]; 10 nM) | surviving fraction (AFIMOXIFENE [1]; 50 nM) | surviving fraction (AFIMOXIFENE [1]; 100 nM) | surviving fraction (AFIMOXIFENE [1]; 500 nM) | surviving fraction (AFIMOXIFENE [1]; 1000 nM) | area under dose-response curve (AFIMOXIFENE [2]) | surviving fraction (IMATINIB; 50 nM) |
| --- | --- | --- | --- | --- | --- | --- | --- | --- | --- | --- | --- | --- | --- | --- | --- | --- | --- | --- | --- | --- |
| CADOES1 SOFT TISSUE | 2.76 | 2.17 | 3.02 | 0.94 ± 0.11 | 0.897 ± 0.035 | 0.926 ± 0.08 | 0.872 ± 0.012 | 0.948 ± 0.02 | 1.03 ± 0.085 | 1.05 ± 0.14 | 1.04 ± 0.054 | 0.998 ± 0.092 | 0.842 ± 0.12 | 0.986 ± 0.066 | 1.07 ± 0.064 | 0.978 ± 0.067 | 1.14 ± 0.042 | 0.967 ± 0.087 | – | – |
| CME SYNOVIAL | – | 1.51 | 3.92 | 1.27 ± 0.17 | 1.4 ± 0.045 | 1.28 ± 0.03 | 1.24 ± 0.16 | 1.37 ± 0.042 | 1.15 ± 0.047 | 1.14 ± 0.055 | 1.26 ± 0.1 | 1.31 ± 0.15 | 1.42 ± 0.13 | 1.46 ± 0.13 | 1.41 ± 0.13 | 1.43 ± 0.1 | 1.28 ± 0.085 | 1.4 ± 0.053 | 4.56 | 1.22 ± 0.1 |
| HCC202 BREAST | 2.67 | – | – | 1.44 ± 0.69 | 0.908 ± 0.013 | 1.28 ± 0.18 | – | 1.32 ± 0.45 | 1.3 ± 0.15 | 1.39 ± 0.35 | 1.15 ± 0.4 | 1.2 ± 0.061 | 1.53 ± 0.67 | 1.19 ± 0.14 | 1.03 ± 0.083 | 1.17 ± 0.17 | 0.881 ± 0.29 | 1.13 ± 0.51 | – | 1.11 ± 0.34 |
| HCC1806 BREAST | 2.16 | 1.54 | 3.61 | 1.06 ± 0.044 | 1.05 ± 0.093 | 1.12 ± 0.07 | 1.16 ± 0.021 | 1.24 ± 0.08 | 0.983 ± 0.077 | 0.956 ± 0.15 | 1.04 ± 0.065 | 1.1 ± 0.077 | 1.16 ± 0.12 | 1.14 ± 0.048 | 1.15 ± 0.026 | 1.13 ± 0.072 | 0.965 ± 0.028 | 0.682 ± 0.064 | – | 1.15 ± 0.15 |
| HCC1954 BREAST | 2.32 | 1.38 | 3.42 | 1.2 ± 0.15 | 1.28 ± 0.091 | 1.23 ± 0.12 | 1.27 ± 0.045 | 0.887 ± 0.025 | 1.07 ± 0.1 | 1 ± 0.0071 | 1.01 ± 0.15 | 1 ± 0.0018 | 1.31 ± 0.18 | 1.33 ± 0.1 | 0.9337 ± 0.0067 | 1.02 ± 0.056 | 0.973 ± 0.1 | 0.883 ± 0.12 | – | 0.9283 ± 0.006 |
| HOSMNG BONE | 2.85 | – | 2.68 | 1.04 ± 0.12 | 1.01 ± 0.067 | 0.994 ± 0.085 | 1 ± 0.019 | 1.14 ± 0.073 | – | 1.07 ± 0.14 | 0.922 ± 0.073 | 0.948 ± 0.032 | 0.996 ± 0.083 | 0.963 ± 0.038 | 1.1 ± 0.017 | 1.06 ± 0.032 | 1.07 ± 0.077 | 1.03 ± 0.078 | 3.26 | 1.09 ± 0.1 |
| LNCAP PROSTATE | 2.42 | – | 3.11 | – | 1.1 ± 0.1 | 0.968 ± 0.068 | – | 0.986 ± 0.049 | – | – | 1.08 ± 0.041 | 0.942 ± 0.1 | 1.04 ± 0.063 | 1 ± 0.098 | 1.06 ± 0.061 | 1.04 ± 0.087 | 1.02 ± 0.08 | 0.983 ± 0.088 | 3.37 | 0.967 ± 0.14 |
| MDAMB134 BREAST | – | 2.52 | 3.19 | 0.896 ± 0.08 | – | – | 0.86 ± 0.057 | 1.11 ± 0.024 | 0.994 ± 0.17 | 0.814 ± 0.15 | 1.32 ± 0.15 | 1.06 ± 0.073 | 1.05 ± 0.011 | 0.975 ± 0.088 | 1.16 ± 0.074 | 0.932 ± 0.037 | 0.887 ± 0.095 | 0.908 ± 0.089 | 3.63 | 1.02 ± 0.093 |

From the supplement of paper PMC6045584
